Format in all cases: functional
Holding throughout (conditions): Homo sapiens

One test concerns U-251. Nature of the test: The compound was evaluated for cytotoxicity against U251 CNS cancer cell line.
The subject of another test is MDA-N. Nature of the test: The compound was evaluated for cytotoxicity against MDA-N breast cancer cell line.
A further test deals with PC-3. The test is described as follows: The compound was evaluated for cytotoxicity against PC-3 prostate cancer cell line.
The next test relates to LOX IMVI. Nature of the test: The compound was evaluated for cytotoxicity against LOX-IMVI melanoma cell line.
The test system of the next test is IGROV-1. Nature of the test: The compound was evaluated for cytotoxicity against IGROV1 ovarian cancer cell line.
The next test relates to MOLT-4. The test is described as follows: The compound was evaluated for cytotoxicity against MOLT-4 leukemia cell line.
The next test concerns NCI-H322M. The test is described as follows: The compound was evaluated for cytotoxicity against NCI-H322M non-small cell lung cancer cell line.
Another test relates to HCT-116. The test is described as follows: The compound was evaluated for cytotoxicity against HCT116 colon cancer cell line.
Another test deals with CAKI-1. Nature of the test: The compound was evaluated for cytotoxicity against CAKI-1 renal cancer cell line.

Regarding `CCN(CC)CCNCc1ccc2[nH]c3c(C)c4ccncc4c(C)c3c2c1`, the GI50 was found to be 180 nM with U-251; 110 nM in the test on MDA-N; 210 nM in the test with PC-3; 120 nM with LOX IMVI; 40 nM in the test on IGROV-1; 10 nM with MOLT-4. Further, the GI50 in the test with NCI-H322M amounted to 60 nM; in the test on HCT-116 it was 50 nM; with CAKI-1, 160 nM.

In the case of `Cc1c2ccncc2c(C)c2c1[nH]c1ccc(CN(CCO)CCO)cc12`, the GI50 in the test with U-251 is 260 nM; in the test on MDA-N it was 370 nM; with PC-3, 340 nM; with LOX IMVI it was 150 nM; in the test on IGROV-1, 120 nM; in the test with MOLT-4 it was 20 nM. Besides, the GI50 is 220 nM in the test on NCI-H322M, 100 nM with HCT-116 and 250 nM with CAKI-1.

As a reminder, the GI50 is the concentration at which growth is held to half of that of the control. Low readings indicate greater sensitivity of the cells, high ones lower sensitivity of the cells.
